Data: publication PMC12582016, “Cupin‐Type Dimethylsulfoniopropionate Lyase from Pelagibacter ubique (DddK Pu ) Catalyzes Aza‐Michael Addition of Primary and Secondary Amines to Acrylic Acid” (Angewandte Chemie (International Ed. in English), 2025)

Key:
[1] = biological target: T1, DddK Pu (dimethylsulfoniopropionate (DMSP) lyase from Pelagibacter ubique HTCC1062) (Candidatus Pelagibacter communis, UniProt Q4FNM4); experiment: end-point assay of acrylate consumption (aza-Michael addition); format: biochemical; conditions: co-substrate sodium acrylate 100 mM; pyrrolidine 100 mM; 50 mM triethanolamine pH 8.0, 25 °C; promiscuous activity
T1 construct: gene SAR11_0394; His-tagged wild type, tag kept, recombinant in E. coli, purified; metals as isolated mainly Zn, Fe, Ni
T1 sequence (Q4FNM4 1-130): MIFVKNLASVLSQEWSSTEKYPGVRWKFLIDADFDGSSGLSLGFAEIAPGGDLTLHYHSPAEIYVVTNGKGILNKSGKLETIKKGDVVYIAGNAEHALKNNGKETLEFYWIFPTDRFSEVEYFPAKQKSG

[2] = biological target: T1, DddK Pu (dimethylsulfoniopropionate (DMSP) lyase from Pelagibacter ubique HTCC1062); experiment: HPLC end-point assay of acrylate formation; format: biochemical; conditions: 50 mM triethanolamine pH 8.0, 25 °C; enzyme as isolated (mainly Zn, Fe, Ni)

Row | SMILES | end-point assay of acrylate consumption (aza-Michael addition) [1] | HPLC end-point assay of acrylate formation [2]
1 | C1CCNC1 [6c, pyrrolidine] | Pyrrolidine (6c) was by far the most active secondary amine | 
2 | C[S+](C)CCC(=O)[O-] [compound 1, DMSP] |  | The specific activity of DddK Pu was determined by the endpoint method
